Results: patent US12590124B2, “Peptide with neutralizing activity against severe acute respiratory syndrome coronavirus 2” (CAREGEN CO, LTD., priority 2020, dated 2026)
Read-outs that look alike come from different tables or passages of the source. Where no end group is shown, it is not given here.

Tested on: SARS-CoV-2
Settings: 1 h

Question: Which Inhibition rate (2.5 mM) does the source give for “KYLLVHRPYYRR [SEQ ID NO: 3, KYLLVHRPYYRR]” here?
Answer: The Inhibition rate was 98%.

Question: And the Inhibition rate (10 mM)?
Answer: The Inhibition rate was 98%.

Question: For RSYMTTHHEQF [SEQ ID NO: 1, RSYMTTHHEQF], which Inhibition rate (2.5 mM) is on record?
Answer: Its Inhibition rate is 21%.

Question: What about the Inhibition rate (10 mM) of the same substance?
Answer: The Inhibition rate was 100%.

Question: With “WVPYQARVPYPR [SEQ ID NO: 4, WVPYQARVPYPR]” as the substance, how does the Inhibition rate (2.5 mM) read?
Answer: The Inhibition rate was 55%.

Question: What about the Inhibition rate (10 mM) of the same substance?
Answer: Its Inhibition rate is 98%.

Question: Which Inhibition rate (2.5 mM) does the source give for KFNRRHH [SEQ ID NO: 2, KFNRRHH] here?
Answer: The Inhibition rate was 51%.

Question: And the Inhibition rate (10 mM)?
Answer: Its Inhibition rate is 96%.
